Reference: patent US7517523B2, “Anti-MIF antibodies” (Cytokine PharmaSciences, Inc., priority 1993, dated 2009)

B1: IL-6: recombinant murine IL-6 (protein, UniProt P08505 25-211, looked up)
Interleukin-6: FPTSQVRRGDFTEDTTPNRPVYTTSQVGGLITHVLWEIVEMRKELCNGNSDCMNNDDALAENNLKLPEIQRNDGCYQTGYNQEICLLKISSGLLEYHSYLEYMKNNLKDNKKDKARVLQRDTETLIHIFNQEVKDLHKIVLPTPISNALLTDKLESQKEWLRTKTIQFILKSLEEFLKVTLRSTRQT
B2: IFNγ: recombinant murine IFNγ (protein, UniProt P01580 23-155, looked up)
Interferon gamma: HGTVIESLESLNNYFNSSGIDVEEKSLFLDIWRNWQKDGDMKILQSQIISFYLRLFEVLKDNQAISNNISVIESHLITTFFSNSKAKKDAFMSIAKFEVNNPQVQRQAFNELIRVVHQLLPESSLRKRKRSRC
B3: IL-1β: recombinant murine IL-1β (protein, UniProt P10749 118-269, looked up)
Interleukin-1 beta: VPIRQLHYRLRDEQQKSLVLSDPYELKALHLNGQNINQQVIFSMSFVQGEPSNDKIPVALGLKGKNLYLSCVMKDGTPTLQLESVDPKQYPKKKMEKRFVFNKIEVKSKVEFESAEFPNWYISTSQAEHKPVFLGNNSGQDIIDFTMESVSS
B4: TNFα: recombinant murine TNFα (protein)
chain: LRSSSQNSSDKPVAHVVANHQVEEQLEWLSQRANALLANGMDLKDNQLVVPADGLYLVYSQVLFKGQGCPDYVLLTHTVSRFAISYQEKVNLLSAVKSPCPKDTPEGAELKPWYEPIYLGGVFQLEKGDQLSAEVNLPKYLDFAESGQVYFGVIAL

Experiments:
Peritoneal Macrophages = experiment: Steroid-induced MIF secretion by peritoneal macrophages; format: cell-based, mouse; settings: 12 to 15 h
Method: Cells were incubated for 12 to 15 h with various steroids (at concentrations ranging from 10^−6M to 10^−14M).
Samples were resolved on 18% SDS polyacrylamide gels under reducing conditions and transferred onto nitrocellulose membrane (Schleicher and Schuell, Keene, N.H.) at 50 V and 150 mA for 16 h. Membranes were blocked with 500 mM NaCl, 50 mM Tris-Base, pH 7.5 buffer containing 5% nonfat dry milk and 0.05% Tween-20 and incubated first with polyclonal anti-rMIF serum and then with horseradish peroxidase-conjugated goat anti-rabbit IgG antibody (each diluted 1:1000 in 500 mM NaCl, 50 mM Tris-Base, pH 7.5 buffer with 1% BSA). […] Incubations were 1 h each. MIF was visualized by development with chloronaphtol/H2O2 or with TMB substrate.

RAW macrophages = experiment: Inhibition of the macrophage MIF response to dexamethasone; format: cell-based, mouse; settings: pretreatment and co-administration, 10^−6M
Method: RAW 264.7 murine macrophages were obtained from the American Type Culture Collection (Rockville, Md.). Cells were grown in RPMI 1640 medium (Gibco, Grand Island, N.Y.), 10% heat-inactivated fetal bovine serum (FBS) (HyClone, Logan, Utah), 50 μg/ml of carbenicillin and gentamicin. […] After 3 h of incubation at 37° C. in a humidified atmosphere with 5% CO2, nonadherent cells were removed and wells were washed twice with RPMI/1% FBS. In some experiments designed to test for inhibition of MIF release, test compounds were then added to the culture media. For example, the cells were pre-treated with 20α-dihydrocorticol at a final concentration of 10^−6M. Cells then were incubated for 12-15 h with various steroids at concentrations ranging from 10^−6M to […] (e.q., dexamethasone), along with the desired test compound (e.g., 20α-dihydrocortisol) if any. At the end of experiment, cell culture media were collected and centrifuged (10 min at 800 g). Cell-conditioned media were concentrated 10-fold by membrane filtration (10 kDa cut-off) (Centricon-10, Amicon, Beverly, N.Y.).
Samples were resolved on 18% SDS polyacrylamide gels under reducing conditions and transferred onto nitrocellulose membrane (Schleicher and Schuell, Keene, N.H.) at 50 V and 150 mA for 16 h. […]

[1] = tested on: Sprague-Dawley female rats; experiment: Serum MIF after i.v. steroid injection; format: in vivo, rat; settings: 10 mg/kg i.v., serum Western blotting
Method: Canulated Sprague-Dawley female rats were purchased from Zivic-Miller. Animals were housed with free access to food and water and were acclimatized for at least 2 days prior to experimentation. Rats were injected i.v. through the jugular vein with either dexamethasone (1, 10 or 20 mg/kg), or with RU38486 (mifepristone) (1 or 10 mg/kg), or with the two drugs together (both at 10 mg/kg, RU38486 was injected 15 min. before dexamethasone). Serum was collected 3, 6, and 9 hours post-steroids injection and analyzed by Western blotting with anti-MIF antibody.

AtT-20 pituitary cells = experiment: MIF release from pituitary (AtT-20) cells (Western blotting); format: cell-based, mouse; settings: 1-100 ng/ml
Method: AtT-20 cells were cultured for 24 hours in serum-free medium (enriched serum-free Joklik's medium from Gibco) containing various concentrations of LPS (E. coli LPS 0111:B4 from Sigma) at 0.5 μg/ml-50 μg/ml. […] This protein was transferred to polyvinylidene difluoride membrane and its primary N-terminal amino acid sequence was determined by automated gas-phase sequencing (Applied Biosystems).
MIF release from pituitary (AtT-20) cells was analyzed by Western blotting with anti-MIF antibody (FIG. 8). 1.5×10^5 pituitary cells were cultured serum-free for 18 h with different concentrations of LPS. After transfer, nitrocellulose membranes were incubated with rabbit anti-rMIF serum (1:1000 dilution) and bound antibody visualized with horseradish peroxidase-conjugated goat anti-rabbit antibody. 100 ng of rMIF was electrophoresed on the same gel for reference. Control supernatants (C) contained 1 μg/ml LPS that was added after removal of cells.

[2] = tested on: thioglycollate-elicited peritoneal macrophages; experiment: MIF secretion by thioglycollate-elicited peritoneal macrophages stimulated with LPS or IFNγ plus LPS; format: cell-based, mouse; settings: IFNγ 100 IU/ml given 1 h prior to LPS
Method: After 3 h of incubation at 37° C. in a humidified atmosphere with 5% CO2, nonadherent cells were removed and wells were washed twice with RPMI/1% FBS. Cells then were incubated for 12 h with LPS (at concentrations ranging from 1 pg/ml to 1 μg/ml) or with cytokines (1 or 10 ng/ml for TNFα, IL-1β, and IL-6, and 10, 100 or 1000 IU/ml for IFNγ) diluted in RPMI/1% FBS. For time-course experiments, conditioned media of parallel cultures were removed at 3, 6, 9, 12 and 15 h intervals after LPS stimulation. […] Cells were incubated for 12 h either with LPS or with IFNγ plus LPS. When co-stimulated with IFNγ and LPS, cells were first incubated for an hour with IFNγ (100 IU/ml) before addition of LPS at the indicated concentrations. At the end of each experiment, cell-culture media were collected, centrifuged (10 min at 800 g), and supplemented with PMSF (1 mM). Supernatants then were concentrated 10-fold by membrane filtration (10 kD cut-off) (Centricon-10, Amicon, Beverly, N.Y.). […]
For Western blotting, samples were resolved on 18% SDS polyacrylamide gels under reducing conditions and transferred onto nitrocellulose membrane (Schleicher and Schuell, Keene, N.H.) at 50 V and 150 mA for 16 h. […] Serum MIF bands were quantified by laser densitometry (Shimadzu FDU-3, CS-9000U, Braintree, Mass.). Faint densitometric signals in the MIF region were detected in most sera prior to LPS administration (0 h). […]

| Molecule | Range of Steroid Concentrations Inducing MIF in Peritoneal Macrophages (Peritoneal Macrophages) | MIF release from pituitary cells (AtT-20 pituitary cells) | also measured |
| --- | --- | --- | --- |
| C[C@]12CCC(=O)C=C1CC[C@@H]1[C@@H]2[C@@H](O)C[C@@]2(C)[C@H]1CC[C@]2(O)C(=O)CO [Hydrocortisone] | 10^−8 to 10^−16 M | – | – |
| C[C@]12CC[C@H]3[C@@H](CCC4=CC(=O)CC[C@@]43C)[C@@H]1CC[C@@H]2O [Testosterone] | 10^−8 to 10^−14 M | – | – |
| C[C@]12CCC(=O)C=C1CC[C@@H]1[C@@H]2[C@@H](O)C[C@]2(C=O)[C@@H](C(=O)CO)CC[C@@H]12 [Aldosterone] | 10^−8 to 10^−14 M | – | – |
| C[C@]12CCC(=O)C=C1CC[C@@H]1[C@@H]2[C@@H](O)C[C@@]2(C)[C@H]1CC[C@]2(O)[C@@H](O)CO [4-pregnene-11β,17α,20α,21-tetrol-3-one] | 10^−10 to 10^−14 M | – | Effect on the MIF response to dexamethasone (RAW macrophages): attenuates or abolishes |
| C[C@@H]1C[C@H]2[C@@H]3CCC4=CC(=O)C=C[C@]4(C)[C@@]3(F)[C@@H](O)C[C@]2(C)[C@@]1(O)C(=O)CO [Dexamethasone] | 10^−8 to 10^−12 M | – | – |
| CC#C[C@]1(O)CC[C@H]2[C@@H]3CCC4=CC(=O)CCC4=C3[C@@H](c3ccc(N(C)C)cc3)C[C@@]21C [RU-38486 (mifepristone), mifepristone] | – | – | MIF secretion in vivo [1]: induced MIF secretion |
| B1 | – | not released | – |
| B2 | – | not released | Increase in LPS responsiveness on co-stimulation [2]: > 1000 fold |
| B3 | – | not released | – |
| B4 | – | not released | – |
